Laboratory results from patent US8871767B2, “2-arylimidazo[1,2-B]pyridazine, 2-phenylimidazo[1,2-A]pyridine, and 2-phenylimidazo[1,2-A]pyrazine derivatives” (Hengrui (USA) Ltd., priority 2010, dated 2014).
Read-outs that look alike come from different tables or passages of the source.

What was measured:
[1] = test system: Hedgehog pathway activation (GLi-luciferase reporter) in Shh Light II reporter cells; assay: Hedgehog pathway activation on Shh Light II reporter cells measured by luciferase activity; format: cell-based
In short: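 Shh Light II reporter cells carrying a hedgehog-responsive GLi-luciferase reporter were stimulated either with 500 nM SAG, a direct Smoothened agonist, or with conditioned media containing human Sonic Hedgehog (hShh). Test compounds were evaluated for blocking this pathway activation, quantified by luciferase activity. Cell viability was monitored in parallel with the Celltiter-Blue® assay.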

[2] = test system: Hedgehog pathway activation on 10T1/2/Smo#3 cells (C3H10T1/2 cells transfected with human Smoothened receptor); assay: Hedgehog pathway activation on 10T1/2/Smo#3 cells measured by ALP activity; format: cell-based
Protocol: Hedgehog conditioned media was obtained by transfecting 293H cells with the full length gene encoding human Sonic Hedgehog (hShh) inserted into the pCMV6 expression vector, which contains a neomycin selectable marker and expresses the protein of interest with a C-terminal FLAG affinity tag. After selection in G418 containing media, conditioned media from Hedgehog expressing clones were tested for the ability to activate the hedgehog-responsive GLi-luciferase reporter in the Shh Light II cell line obtained by license from John Hopkins University (Taipale J, et al. Effects of oncogenic mutations in Smoothened and Patched can be reversed by cyclopamine. Nature 406: 1005-1009, 2000).
C3H10T1/2 cells were transfected with a pCMV expression vector containing the full length gene sequence encoding the human Smoothened receptor. Pooled cells, designated 10T1/2/Smo#3, growing in G418 selection media responded to activation by 10-20% conditioned hShh media with an approximate 5-10 fold increase in alkaline phosphaste (ALP) activity over untransfected parent C3H10T1/2 cells as measured by the conversion of the free acid of 4-methylumbelliferyl phosphate to a fluorescent product.
A test compound library was screened against hShh and 500 nM SAG (a direct agonist of the Smoothened receptor) activated 10T1/2/Smo#3 cells and Shh Light II reporter cells for the ability to block Hedgehog pathway activation. Concurrently, cell viability was measured by utilizing Celltiter-Blue® (Promega, Madison Wis.) viability assay. Active compounds were defined as those that inhibited Hedgehog signaling by greater than 50% with no concurrent loss in cell viability.
Their inhibitory activity against Hedgehog pathway activation on 10T1/2/Smo#3 cells as measured by ALP activity and Shh Light II reporter cells as measured by luciferase activity is shown in Table 1 below. In Table 1, +++ stands for an IC50 value that is less than 0.3 μM, ++ between 0.3 and 3 μM, + between 3 and 30 μM.
Additional data for compounds of the invention is shown below in Table 2. Their inhibitory activities against Hedgehog pathway activation are shown as IC50 values in μM on 10T1/2/Smo#3 cells as measured by ALP activity, or on Shh Light II reporter cells as measured by luciferase activity (hShh activation).

[3] = Mus musculus, Shh Light II, hShh activation, read-out: Shh (IC50, inhibition of Hedgehog pathway activation)
[4] = Mus musculus, C3H 10T1/2, 10T1/2/Smo#3 cells, measured by ALP activity, read-out: ALP (IC50, inhibition of Hedgehog pathway activation)
[5] = Mus musculus, Shh Light II, SAG activation (500 nM SAG), read-out: Shh Light II luciferase activity (SAG activation)
[6] = Mus musculus, Shh Light II, hShh activation, read-out: Shh Light II luciferase activity (hShh activation)
[7] = Mus musculus, C3H 10T1/2, 10T1/2/Smo#3 cells, hShh activation, ALP activity, read-out: 10T1/2/Smo#3 ALP activity (hShh Activation)

`Cc1ccc(-c2cn3nc(-c4ccc(C(=N)N)cc4C(F)(F)F)ccc3n2)cc1NC(=O)C(C)(C)C` [compound 543, N-(5-(6-(4-carbamimidoyl-2-(trifluoromethyl)phenyl)imidazo[1,2-b]pyridazin-2-yl)-2-methylphenyl)pivalamide] was tested, and the IC50 [1, 3] was 4 nM and the IC50 [2, 4] was 7 nM.
`Cc1c(-c2ccccc2)nc2ccc(N3CCN(C(=O)OC(C)(C)C)CC3)nn12` [Example 158, tert-butyl 4-(3-methyl-2-phenylimidazo[1,2-b]pyridazin-6-yl)piperazine-1-carboxylate] showed an IC50 [1, 5] of 300 to 3000 nM, an IC50 [1, 3] of 847 nM and an IC50 [1, 6] of 3000 to 30000 nM. For the same molecule, the IC50 [2, 7] was 3000 to 30000 nM and the IC50 [2, 4] was 7340 nM.
Work on `Cc1ncc(-c2cn3nc(-c4ccccc4F)ccc3n2)cc1NC(=O)C(C)(C)C` [Example 390, N-(5-(6-(2-fluorophenyl)imidazo[1,2-b]pyridazin-2-yl)-2-methylpyridin-3-yl)pivalamide] yielded an IC50 [1, 5] of 300 to 3000 nM, an IC50 [1, 3] of 270 nM and an IC50 [1, 6] of less than 300 nM. The IC50 [2, 7] was 300 to 3000 nM and the IC50 [2, 4] was 469 nM.
With `CCN[C@H]1CCN(c2ccc3nc(-c4ccc(C)c(NC(=O)C(C)(C)C)c4)cn3n2)C1` [Example 394, (S)-N-(5-(6-(3-(ethylamino)pyrrolidin-1-yl)imidazo[1,2-b]pyridazin-2-yl)-2-methylphenyl)pivalamide] the IC50 [1, 3] was 41 nM and the IC50 [2, 4] was 189 nM.
`Cc1ccc(-c2cn3nc(-c4ccc(F)cc4C(F)(F)F)ccc3n2)cc1NC(=O)C(C)(C)C` [Example 396, N-(5-(6-(4-fluoro-2-(trifluoromethyl)phenyl)imidazo[1,2-b]pyridazin-2-yl)-2-methylphenyl)pivalamide] showed an IC50 [1, 3] of 31 nM and an IC50 [2, 4] of 82 nM.
`CCN[C@@H]1CCN(c2ccc3nc(-c4ccc(C)c(NC(=O)C(C)(C)C)c4)cn3n2)C1` [Example 393, (R)-N-(5-(6-(3-(ethylamino)pyrrolidin-1-yl)imidazo[1,2-b]pyridazin-2-yl)-2-methylphenyl)pivalamide] gave an IC50 [1, 5] of 300 to 3000 nM, an IC50 [1, 3] of 31 nM and an IC50 [1, 6] of less than 300 nM. For the same molecule, the IC50 [2, 7] was less than 300 nM and the IC50 [2, 4] was 34 nM.
In the case of `Cc1c(-c2cccnc2F)nn2cc(-c3ccc(C(F)(F)F)c(NC(=O)C(C)(C)C)c3)nc2c1C` [Example 199, N-(5-(6-(2-fluoropyridin-3-yl)-7,8-dimethylimidazo[1,2-b]pyridazin-2-yl)-2-(trifluoromethyl)phenyl)pivalamide], the IC50 [1, 3] is reported as 337 nM and the IC50 [2, 4] is reported as 111 nM.
With `Cc1ccc(-c2cn3nc(-c4cc(C#N)ccc4F)ccc3n2)cc1NC(=O)C(C)(C)C` [Example 274, N-(5-(6-(5-cyano-2-fluorophenyl)imidazo[1,2-b]pyridazin-2-yl)-2-methylphenyl)pivalamide] the IC50 [1, 3] was 144 nM and the IC50 [2, 4] was 20 nM.
With `COc1cc(CN(Cc2cc(OC)cc(OC)c2)c2cc(-c3cn4nc(OC)ccc4n3)ccc2C)cc(OC)c1` [Example 104, N,N-bis(3,5-dimethoxybenzyl)-5-(6-methoxyimidazo[1,2-b]pyridazin-2-yl)-2-methylaniline] the IC50 [1, 5] was 3000 to 30000 nM, the IC50 [1, 3] was greater than 10000 nM and the IC50 [1, 6] was 3000 to 30000 nM. The IC50 [2, 7] was 3000 to 30000 nM and the IC50 [2, 4] was greater than 10000 nM.
In the case of `Cc1c(-c2ccccn2)nn2cc(-c3ccc(C(F)(F)F)c(NC(=O)C(C)(C)C)c3)nc2c1C` [Example 202, N-(5-(7,8-dimethyl-6-(pyridin-2-yl)-imidazo[1,2-b]pyridazin-2-yl)-2-(trifluoromethyl)phenyl)pivalamide], the IC50 [1, 3] is reported as 221 nM and the IC50 [2, 4] is reported as 1320 nM.
`O=C(Nc1cc(-c2cn3nc(-c4cccnc4C(F)(F)F)ccc3n2)ccc1Cl)C1CCCC1` [Example 671, N-(2-chloro-5-(6-(2-(trifluoromethyl)pyridin-3-yl)imidazo[1,2-b]pyridazin-2-yl)phenyl)cyclopentanecarboxamide] showed an IC50 [1, 3] of 24 nM and an IC50 [2, 4] of 315 nM.
`CC(C)(C)C(=O)Nc1cc(-c2cn3nc(N4CCCC(C(F)(F)F)C4)ccc3n2)ccc1C(F)(F)F` (centres unmarked) [Example 356, N-(2-(trifluoromethyl)-5-(6-(3-(trifluoromethyl)piperidin-1-yl)imidazo[1,2-b]pyridazin-2-yl)phenyl)pivalamide] gave an IC50 [1, 3] of 309 nM and an IC50 [2, 4] of 514 nM.
`Cc1ccc(-c2cn3nc(NC(=O)c4cccc(C=CC(=O)NO)c4)ccc3n2)cc1NC(=O)C(C)(C)C` [compound 605] gave an IC50 [1, 5] of less than 300 nM, an IC50 [1, 3] of 30 nM and an IC50 [1, 6] of less than 300 nM. For the same molecule, the IC50 [2, 7] was less than 300 nM and the IC50 [2, 4] was 62 nM.
In the case of “N-(2-(2-(trifluoromethyl)pyridin-3-yl)-5-(6-(2-(trifluoromethyl)pyridin-3-yl)imidazo[1,2-b]pyridazin-2-yl)phenyl)pivalamide [Example 663]”, the IC50 ([1]; hShh activation, read-out: Shh (IC50, inhibition of Hedgehog pathway activation)) is reported as 6230 nM and the IC50 ([2]; 10T1/2/Smo#3 cells, measured by ALP activity, read-out: ALP (IC50, inhibition of Hedgehog pathway activation)) is reported as 3540 nM.
`CC(C)(C)C(=O)Nc1cc(-c2cn3nc(-c4cncnc4)ccc3n2)ccc1C(F)(F)F` [Example 372, N-(5-(6-(pyrimidin-5-yl)imidazo[1,2-b]pyridazin-2-yl)-2-(trifluoromethyl)phenyl)pivalamide] showed an IC50 [1, 3] of 827 nM and an IC50 [2, 4] of 633 nM.
`Cc1ccc(-c2cn3nc(N4CC[C@@H](O)C4)ccc3n2)cc1NC(=O)C(C)(C)C` [Example 347, (R)-N-(5-(6-(3-hydroxypyrrolidin-1-yl)imidazo[1,2-b]pyridazin-2-yl)-2-methylphenyl)pivalamide] showed an IC50 [1, 3] of 46 nM and an IC50 [2, 4] of 22 nM.
With `Cc1ccc(-c2cn3nc(N4CC[C@H](O)C4)ccc3n2)cc1NC(=O)C(C)(C)C` [Example 346, (S)-N-(5-(6-(3-hydroxypyrrolidin-1-yl)imidazo[1,2-b]pyridazin-2-yl)-2-methylphenyl)pivalamide] the IC50 [1, 5] was less than 300 nM, the IC50 [1, 3] was 44 nM and the IC50 [1, 6] was less than 300 nM. The IC50 [2, 7] was less than 300 nM and the IC50 [2, 4] was 23 nM.
`CC(C)(C)C(=O)Nc1cc(-c2cn3nc(-c4cccnc4)ccc3n2)ccc1C(F)(F)F` [Example 153, N-(5-(6-(pyridin-3-yl)imidazo[1,2-b]pyridazin-2-yl)-2-(trifluoromethyl)phenyl)pivalamide] gave an IC50 [1, 5] of 300 to 3000 nM, an IC50 [1, 3] of 264 nM and an IC50 [1, 6] of less than 300 nM. It also gave an IC50 [2, 7] of 300 to 3000 nM and an IC50 [2, 4] of 410 nM.
`Cc1ccc(-c2cn3nc(-c4cccc(S(=O)(=O)N(C)C)c4)ccc3n2)cc1NC(=O)C(C)(C)C` [Example 451, N-(5-(6-(3-(N,N-dimethylsulfamoyl)phenyl)imidazo[1,2-b]pyridazin-2-yl)-2-methylphenyl)pivalamide] showed an IC50 [1, 3] of 960 nM and an IC50 [2, 4] of 1000 nM.
`CC(C)(C)C(=O)Nc1cc(-c2cn3nc(-c4cccc(O)c4)ccc3n2)ccc1C(F)(F)F` [Example 242, N-(5-(6-(3-hydroxyphenyl)imidazo[1,2-b]pyridazin-2-yl)-2-(trifluoromethyl)phenyl)pivalamide] was tested, and the IC50 [1, 3] was 402 nM and the IC50 [2, 4] was 446 nM.
With `CCOc1ccc2nc(-c3ccc(C(F)(F)F)c(C(=O)NC(C)(C)C)c3)cn2n1` [Example 211, N-tert-butyl-5-(6-ethoxyimidazo[2,1-f]pyridazin-2-yl)-2-(trifluoromethyl)benzamide] the IC50 [1, 3] was 1020 nM and the IC50 [2, 4] was 6960 nM.
Work on `CCOC(=O)CCCCCOc1cccc(-c2ccc3nc(-c4ccc(C)c(NC(=O)C(C)(C)C)c4)cn3n2)c1C(F)(F)F` [Example 422, ethyl 6-(3-(2-(4-methyl-3-pivalamidophenyl)imidazo[1,2-b]pyridazin-6-yl)-2-(trifluoromethyl)phenoxy)hexanoate] yielded an IC50 [1, 3] of 869 nM and an IC50 [2, 4] of 312 nM.
